Tested on: colorectal tissue transcripts
Assay: SAGE of normal, adenoma and cancer colorectal tissue (transcript tag counts)
Set-up: species or system human
Outline: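 Tag counts reflect transcript abundance, each mRNA represented by a 15-base tag near its 3′ end. Excluding MHC tags, linkers and duplicate ditags, libraries were compared statistically: two each of normal epithelium, FAP-derived adenomas (>70% neoplastic) and carcinomas.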

[1] = normal colorectal tissue library 1
[2] = normal colorectal tissue library 2

CTTCTTGCCC (chemistry not fully specified)
AD1 (SAGE tag count) (SAGE library AD1): 2
AD2 (SAGE tag count) (SAGE library AD2): 2
CA1 (SAGE tag count) (SAGE library CA1): 0
CA2 (SAGE tag count) (SAGE library CA2): 1
NC1 (SAGE tag count) (SAGE library NC1): 29
NC2 (SAGE tag count) (SAGE library NC2): 2

GGCTGCCTGC (chemistry not fully specified)
AD1 (SAGE tag count) (SAGE library AD1): 4
AD2 (SAGE tag count) (SAGE library AD2): 3
CA1 (SAGE tag count) (SAGE library CA1): 5
CA2 (SAGE tag count) (SAGE library CA2): 2
NC1 (SAGE tag count) (SAGE library NC1): 13
NC2 (SAGE tag count) (SAGE library NC2): 11

GCGAAACTCG (chemistry not fully specified)
AD1 (SAGE tag count) (SAGE library AD1): 1
AD2 (SAGE tag count) (SAGE library AD2): 0
CA1 (SAGE tag count) (SAGE library CA1): 0
CA2 (SAGE tag count) (SAGE library CA2): 0
NC1 (SAGE tag count) (SAGE library NC1): 5
NC2 (SAGE tag count) (SAGE library NC2): 9

GGCACCGTGC (chemistry not fully specified)
AD1 (SAGE tag count) (SAGE library AD1): 8
AD2 (SAGE tag count) (SAGE library AD2): 10
CA1 (SAGE tag count) (SAGE library CA1): 8
CA2 (SAGE tag count) (SAGE library CA2): 4
NC1 (SAGE tag count) (SAGE library NC1): 22
NC2 (SAGE tag count) (SAGE library NC2): 44

ACCCAACTGC (chemistry not fully specified)
AD1 (SAGE tag count) (SAGE library AD1): 0
AD2 (SAGE tag count) (SAGE library AD2): 0
CA1 (SAGE tag count) (SAGE library CA1): 0
CA2 (SAGE tag count) (SAGE library CA2): 0
NC1 (SAGE tag count) (SAGE library NC1): 12
NC2 (SAGE tag count) (SAGE library NC2): 3

TAAATTGCAA (chemistry not fully specified)
AD1 (SAGE tag count) (adenoma library 1): 8
AD2 (SAGE tag count) (adenoma library 2): 17
CA1 (SAGE tag count) (cancer library 1): 5
CA2 (SAGE tag count) (cancer library 2): 3
NC1 (SAGE tag count) [1]: 103
NC2 (SAGE tag count) [2]: 59

CTAGCCTCAC (chemistry not fully specified)
AD1 (SAGE tag count) (SAGE library AD1): 30
AD2 (SAGE tag count) (SAGE library AD2): 53
CA1 (SAGE tag count) (SAGE library CA1): 36
CA2 (SAGE tag count) (SAGE library CA2): 58
NC1 (SAGE tag count) (SAGE library NC1): 172
NC2 (SAGE tag count) (SAGE library NC2): 90

CTTGATTCCC (chemistry not fully specified)
AD1 (SAGE tag count) (SAGE library AD1): 5
AD2 (SAGE tag count) (SAGE library AD2): 0
CA1 (SAGE tag count) (SAGE library CA1): 2
CA2 (SAGE tag count) (SAGE library CA2): 5
NC1 (SAGE tag count) (SAGE library NC1): 26
NC2 (SAGE tag count) (SAGE library NC2): 9

CCGGCTTGAG (chemistry not fully specified)
AD1 (SAGE tag count) (SAGE library AD1): 0
AD2 (SAGE tag count) (SAGE library AD2): 0
CA1 (SAGE tag count) (SAGE library CA1): 0
CA2 (SAGE tag count) (SAGE library CA2): 0
NC1 (SAGE tag count) (SAGE library NC1): 7
NC2 (SAGE tag count) (SAGE library NC2): 4

TTCCGCGTTC (chemistry not fully specified)
AD1 (SAGE tag count) (adenoma library 1): 0
AD2 (SAGE tag count) (adenoma library 2): 0
CA1 (SAGE tag count) (cancer library 1): 2
CA2 (SAGE tag count) (cancer library 2): 2
NC1 (SAGE tag count) [1]: 5
NC2 (SAGE tag count) [2]: 16

CCTGCCCCCC (chemistry not fully specified)
AD1 (SAGE tag count) (SAGE library AD1): 6
AD2 (SAGE tag count) (SAGE library AD2): 3
CA1 (SAGE tag count) (SAGE library CA1): 11
CA2 (SAGE tag count) (SAGE library CA2): 4
NC1 (SAGE tag count) (SAGE library NC1): 20
NC2 (SAGE tag count) (SAGE library NC2): 30

CGTGGGTGGG (chemistry not fully specified)
AD1 (SAGE tag count) (SAGE library AD1): 1
AD2 (SAGE tag count) (SAGE library AD2): 0
CA1 (SAGE tag count) (SAGE library CA1): 0
CA2 (SAGE tag count) (SAGE library CA2): 1
NC1 (SAGE tag count) (SAGE library NC1): 1
NC2 (SAGE tag count) (SAGE library NC2): 10
